Experimental findings from patent publication EP4682145A1, “BENZOHETEROCYCLIC COMPOUND, AND PREPARATION METHOD THEREFOR AND USE THEREOF” (Cascade Pharmaceuticals, Inc., priority 2023, dated 2024) are described below.

What is called pEC50 is the negative decadic logarithm of the EC50, by convention in mol/L. Read a high pEC50 as a small EC50.

pEC50: −log10 of the molar value. Where only a bound is given, the exact number is not on record here.

The target of the test is T1, human FFAR1 (GPR40) (Homo sapiens, UniProt O14842).
T1 construct: Flag; expressed in transfected cells; host or cells: HEK293T
T1 sequence (O14842 whole entry): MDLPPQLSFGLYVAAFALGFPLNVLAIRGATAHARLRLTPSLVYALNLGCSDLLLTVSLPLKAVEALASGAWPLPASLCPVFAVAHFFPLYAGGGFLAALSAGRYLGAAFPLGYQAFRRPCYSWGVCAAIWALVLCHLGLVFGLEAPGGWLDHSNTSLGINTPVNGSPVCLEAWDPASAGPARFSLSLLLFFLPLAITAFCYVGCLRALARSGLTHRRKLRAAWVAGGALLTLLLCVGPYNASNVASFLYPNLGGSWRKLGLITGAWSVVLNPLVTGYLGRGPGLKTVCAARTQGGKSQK
The experiment in a line: NFAT-RE-based reporter gene activity assay (Dual-Glo luciferase) for GPR40 agonistic activity in co-transfected HEK293T cells. Particulars: 4-hour treatment; for Efficacy (%): class symbols. The test is classed as cell-based. The method, boiled down: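 Agonism read as NFAT-RE-driven firefly luciferase over Renilla control (Dual-Glo) after 4 h compound exposure, top concentration 1 µM, 10 half-log steps.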

Take `CCCCCCNC(=O)c1ccc(OC)cc1N1CCC(c2oc3cc(C(CC(=O)O)C4CC4)ccc3c2-c2cnn(C(C)(C)C)c2)CC1` (centres unmarked) [Compound 95]: the pEC50 was 6.30 to 7.00 and the “Efficacy (%)” value is on record as “†† (150 ≥ Efficacy (%) > 100)”.
Consider `COc1cccc(N2CCC(c3oc4cc([C@@H](CC(=O)O)C5CC5)ccc4c3CC=C(C)C)CC2)c1` [Compound 374], for which the pEC50 is 7.00 to 8.00 and the “Efficacy (%)” value was “†† (150 ≥ Efficacy (%) > 100)”.
As to `COc1cccc(N2CCC(c3oc4cc([C@@H](CC(=O)O)C5CC5)ccc4c3C/C=C/C3CC3)CC2)c1` [Compound 375], the pEC50 was 6.30 to 7.00 and the “Efficacy (%)” value is listed as “†† (150 ≥ Efficacy (%) > 100)”.
Take `COc1cccc(N2CCC(c3oc4cc([C@@H](CC(=O)O)C5CC5)ccc4c3C(C)OCc3ccco3)CC2)c1` (some centres unmarked) [Compound 420]: the pEC50 is 6.30 to 7.00 and the “Efficacy (%)” value is reported as “†† (150 ≥ Efficacy (%) > 100)”.
In the case of `COc1cccc(N2CCC(c3oc4cc(C(CC(=O)O)C5CC5)ccc4c3-c3noc(C(C)(C)C)n3)CC2)c1` (centres unmarked) [Compound 122], the negative logarithm of the EC50 (pEC50) is 7.00 to 8.00 and the “Efficacy (%)” value is listed as “†† (150 ≥ Efficacy (%) > 100)”.
Consider `COc1ccc(F)c(N2CCC(c3oc4cc(C(CC(=O)O)C5CC5)ccc4c3C(=O)Nc3ccc(F)cc3)CC2)c1` (centres unmarked) [Compound 317], for which the negative-log EC50 (pEC50) was 6.30 to 7.00 and the “Efficacy (%)” value is “† (100 ≥ Efficacy (%) > 50)”.
With `COc1ccc(F)c(N2CCC(c3oc4cc(C(CC(=O)O)C5CC5)ccc4c3C(=O)NCCC(C)(C)C)CC2)c1` (centres unmarked) [Compound 307], the pEC50 was 6.30 to 7.00 and the “Efficacy (%)” value was “†† (150 ≥ Efficacy (%) > 100)”.
In the case of `COc1cccc(N2CCC(c3oc4cc(C(CC(=O)O)C5CC5)ccc4c3-c3nnc(-c4ccccc4)o3)CC2)c1` (centres unmarked) [Compound 133], the pEC50 was 6.30 to 7.00 and the “Efficacy (%)” value is “† (100 ≥ Efficacy (%) > 50)”.
Take `CC(C)(C)c1ccc(-c2c(C3CCN(c4cccc(S(C)(=O)=O)c4)CC3)oc3cc(C(CC(=O)O)C4CC4)ccc23)cc1` (centres unmarked) [Compound 27]: the pEC50 is 6.30 to 7.00 and the “Efficacy (%)” value is on record as “† (100 ≥ Efficacy (%) > 50)”.
For `COc1cccc(N2CCC(c3oc4cc([C@@H](CC(=O)O)C5CC5)ccc4c3C(=O)Nc3cccc(C)c3)CC2)c1F` [Compound 325], in that order: 6.30 to 7.00 and “†† (150 ≥ Efficacy (%) > 100)”.
For `COc1cccc(N2CCC(c3oc4cc(C(CC(=O)O)C5CC5)ccc4c3C(=O)Nc3cc(C(C)(C)C)no3)CC2)c1` (centres unmarked) [Compound 301], in that order: 6.30 to 7.00 and “†† (150 ≥ Efficacy (%) > 100)”.
For `COc1cccc(N2CCC(c3oc4cc(C(CC(=O)O)C5CC5)ccc4c3C3O[C@@H](C)[C@H](C)O3)CC2)c1` (some centres unmarked) [Compound 400], the pEC50 was 6.30 to 7.00 and the “Efficacy (%)” value was “† (100 ≥ Efficacy (%) > 50)”.
As to `COc1ccc(F)c(N2CCC(c3oc4cc(C(CC(=O)O)C5CC5)ccc4c3-c3cccc(N(C(C)=O)C(C)C)c3)CC2)c1` (centres unmarked) [Compound 191], the pEC50 is 6.30 to 7.00 and the “Efficacy (%)” value is given as “†† (150 ≥ Efficacy (%) > 100)”.
Consider `COc1cccc(N2CCC(c3oc4cc([C@@H](CC(=O)O)C5CC5)ccc4c3C(C)OC)CC2)c1` (some centres unmarked) [Compound 406], for which the pEC50 was 6.30 to 7.00 and the “Efficacy (%)” value is “††† (Efficacy (%) > 150)”.
With `COc1cccc(N2CCC(c3oc4cc([C@@H](CC(=O)O)C5CC5)ccc4c3-c3cccc(C)c3)CC2)c1` [Compound 28], the pEC50 is 6.30 to 7.00 and the “Efficacy (%)” value was “††† (Efficacy (%) > 150)”.
As to `COc1cccc(N2CCC(c3oc4cc([C@@H](CC(=O)O)C5CC5)ccc4c3C(=O)Nc3cc(C)ccc3F)CC2)c1` [Compound 253], the pEC50 was at least 8.00 and the “Efficacy (%)” value was “††† (Efficacy (%) > 150)”.
As to `COc1cccc(N2CCC(c3oc4cc(OC(C)C(=O)O)ccc4c3-c3cnn(C(C)(C)C)c3)CC2)c1` (centres unmarked) [Compound 65], the pEC50 was 6.30 to 7.00 and the “Efficacy (%)” value is reported as “†† (150 ≥ Efficacy (%) > 100)”.
The matching figures for `COc1cccc(N2CCC(c3oc4cc(C(CC(=O)O)C5CC5)ccc4c3C(=O)NC34CC5CC(CC(C5)C3)C4)CC2)c1` (centres unmarked) [Compound 349]: 6.30 to 7.00 and “†† (150 ≥ Efficacy (%) > 100)”.
For `COc1cccc(N2CCC(c3oc4cc([C@@H](CC(=O)O)C5CC5)ccc4c3CNCC(C)(C)C)CC2)c1` [Compound 435], in that order: 7.00 to 8.00 and “†† (150 ≥ Efficacy (%) > 100)”.
For `COc1cccc(N2CCC(c3oc4cc([C@@H](CC(=O)O)C5CC5)ccc4c3C(=O)Nc3cc(OC(F)(F)F)ccc3F)CC2)c1` [Compound 262], in that order: over 8.00 and “†† (150 ≥ Efficacy (%) > 100)”.
As for `COc1cccc(N2CCC(c3oc4cc(C(CC(=O)O)C5CC5)ccc4c3-c3cnn(C)c3)CC2)c1` (centres unmarked) [Compound 36], the pEC50 was 6.30 to 7.00 and the “Efficacy (%)” value is reported as “†† (150 ≥ Efficacy (%) > 100)”.
For `COc1cccc(N2CCC(c3oc4cc([C@@H](CC(=O)O)C5CC5)ccc4c3-c3cc4ccccc4[nH]3)CC2)c1` [Compound 150], the pEC50 is 6.30 to 7.00 and the “Efficacy (%)” value is “†† (150 ≥ Efficacy (%) > 100)”.
For `COc1cccc(N2CCC(c3oc4cc([C@@H](CC(=O)O)C5CC5)ccc4c3C(=O)Nc3cc(C)ccc3C)CC2)c1` [Compound 269], in that order: 7.00 to 8.00 and “††† (Efficacy (%) > 150)”.
For `COc1cccc(N2CCC(c3oc4cc([C@@H](CC(=O)O)C5CC5)ccc4c3C(=O)Nc3cccc(C)c3)CC2)c1` [Compound 242], in that order: 6.30 to 7.00 and “†† (150 ≥ Efficacy (%) > 100)”.
In the case of `COc1cccc(NC(=O)c2c(C3CCN(c4cccc(OC)c4)CC3)oc3cc(C(CC(=O)O)C4CC4)ccc23)c1` (centres unmarked) [Compound 245], the pEC50 was 6.30 to 7.00 and the “Efficacy (%)” value was “†† (150 ≥ Efficacy (%) > 100)”.
As for `CCCCOC(C)c1c(C2CCN(c3cccc(OC)c3)CC2)oc2cc([C@@H](CC(=O)O)C3CC3)ccc12` (some centres unmarked) [Compound 410], the pEC50 is 6.30 to 7.00 and the “Efficacy (%)” value is listed as “††† (Efficacy (%) > 150)”.
Consider `CC(C)(C)n1cc(-c2c(C3CCN(c4cccc(OC(F)F)c4)CC3)oc3cc(C(CC(=O)O)C4CC4)ccc23)cn1` (centres unmarked) [Compound 43], for which the pEC50 is 6.30 to 7.00 and the “Efficacy (%)” value is reported as “†† (150 ≥ Efficacy (%) > 100)”.
Take `CCc1ccc(-c2c(C3CCN(c4cc(OC)ccc4F)CC3)oc3cc(C(CC(=O)O)C4CC4)ccc23)cc1` (centres unmarked) [Compound 162]: the pEC50 is 6.30 to 7.00 and the “Efficacy (%)” value is listed as “††† (Efficacy (%) > 150)”.
`COc1ccc(F)c(N2CCC(c3oc4cc(C(CC(=O)O)C5CC5)ccc4c3-c3ccc(C(=O)N4CCCC4)cc3)CC2)c1` (centres unmarked) [Compound 200]: the pEC50 is 6.30 to 7.00 and the “Efficacy (%)” value was “†† (150 ≥ Efficacy (%) > 100)”.
For the molecule `COc1ccc(F)c(N2CCC(c3oc4cc(C(CC(=O)O)C5CC5)ccc4c3-c3ccc(C(C)C)cc3)CC2)c1` (centres unmarked) [Compound 163], the pEC50 is 6.30 to 7.00 and the “Efficacy (%)” value is given as “†† (150 ≥ Efficacy (%) > 100)”.
Consider `CC(C)(C)c1ccc(-c2c(C3CCN(c4ccc5ccoc5c4)CC3)oc3cc(C(CC(=O)O)C4CC4)ccc23)cc1` (centres unmarked) [Compound 209], for which the pEC50 is 6.30 to 7.00 and the “Efficacy (%)” value is on record as “†† (150 ≥ Efficacy (%) > 100)”.
Consider `COc1cccc(N2CCC(c3oc4cc(C(CC(=O)O)C5CC5)ccc4c3-c3cn(C)nn3)CC2)c1` (centres unmarked) [Compound 120], for which the pEC50 is under 6.30 and the “Efficacy (%)” value is on record as “†† (150 ≥ Efficacy (%) > 100)”.
For the molecule `COc1cccc(N2CCC(c3oc4cc(C(CC(=O)O)C5CC5)ccc4c3C(=O)Nc3cccc(C#N)c3)CC2)c1` (centres unmarked) [Compound 249], the pEC50 is 6.30 to 7.00 and the “Efficacy (%)” value is “†† (150 ≥ Efficacy (%) > 100)”.
Turning to `COc1cccc(N2CCC(c3oc4cc([C@@H](CC(=O)O)C5CC5)ccc4c3C(=O)Nc3cc(N4CCOCC4)ccc3Cl)CC2)c1` [Compound 285], the pEC50 was at least 8.00 and the “Efficacy (%)” value is reported as “†† (150 ≥ Efficacy (%) > 100)”.
For `COc1cccc(N2CCC(c3oc4cc(C(CC(=O)O)C5CC5)ccc4c3C(=O)Nc3nccs3)CC2)c1` (centres unmarked) [Compound 290], the pEC50 is 6.30 to 7.00 and the “Efficacy (%)” value is given as “†† (150 ≥ Efficacy (%) > 100)”.
Consider `COc1ccc(F)c(N2CCC(c3oc4cc(C(CC(=O)O)C5CC5)ccc4c3-c3cccc(Cl)c3)CC2)c1` (centres unmarked) [Compound 171], for which the pEC50 is 6.30 to 7.00 and the “Efficacy (%)” value is recorded as “†† (150 ≥ Efficacy (%) > 100)”.
On to `COc1cccc(N2CCC(c3oc4cc([C@@H](CC(=O)O)C5CC5)ccc4c3-c3cncc(C)c3)CC2)c1` [Compound 144], for which the pEC50 is under 6.30 and the “Efficacy (%)” value is given as “†† (150 ≥ Efficacy (%) > 100)”.
Consider `COc1cccc(N2CCC(c3oc4cc([C@@H](CC(=O)O)C5CC5)ccc4c3C(C)OCC3CCC3)CC2)c1` (some centres unmarked) [Compound 418], for which the pEC50 was 7.00 to 8.00 and the “Efficacy (%)” value was “††† (Efficacy (%) > 150)”.
The matching figures for `COc1ccc(F)c(N2CCC(c3oc4cc(C(CC(=O)O)C5CC5)ccc4c3-c3cnn(-c4ccccc4)c3)CC2)c1` (centres unmarked) [Compound 99]: 6.30 to 7.00 and “†† (150 ≥ Efficacy (%) > 100)”.
Turning to `COc1cccc(N2CCC(c3oc4cc(C(CCO)C5CC5)ccc4c3-c3cnn(C(C)(C)C)c3)CC2)c1` (centres unmarked) [Compound 56], the pEC50 is 6.30 to 7.00 and the “Efficacy (%)” value is reported as “† (100 ≥ Efficacy (%) > 50)”.
In the case of `COc1cccc(N2CCC(c3oc4cc(C(CC(=O)O)C5CC5)ccc4c3C(=O)Nc3nccn3C)CC2)c1` (centres unmarked) [Compound 304], the pEC50 is 6.30 to 7.00 and the “Efficacy (%)” value is “††† (Efficacy (%) > 150)”.
Regarding `COc1ccc(F)c(N2CCC(c3oc4cc(C(CC(=O)O)C5CC5)ccc4c3-c3cccc(NCC(C)(C)C)c3)CC2)c1` (centres unmarked) [Compound 188], the pEC50 was 6.30 to 7.00 and the “Efficacy (%)” value is given as “†† (150 ≥ Efficacy (%) > 100)”.
As for `COc1cccc(N2CCC(c3oc4cc([C@@H](CC(=O)O)C5CC5)ccc4c3-c3cc4cccc(F)c4[nH]3)CC2)c1` [Compound 151], the pEC50 is 6.30 to 7.00 and the “Efficacy (%)” value is recorded as “†† (150 ≥ Efficacy (%) > 100)”.
